Data taken from patent US20160137639A1, “TRIAZOLE-ISOXAZOLE COMPOUND AND MEDICAL USE THEREOF” (JAPAN TOBACCO INC., priority 2012, published 2016).
Read-outs that look alike come from different tables or passages of the source.

Assays:
mouse RORγ = biological target: T1, mouse RORγ (Mus musculus, UniProt P51450); test: Luciferase reporter gene assay of inhibitory effect against RORγ transcriptional activity (GAL4-mRORγ plasmid in CHO cells); format: cell-based
T1 construct: mouse, NM_011281.2 and from Ile251 to Lys516; expressed in transfected cells; host or cells: CHO cells (transient co-transfection with pG5-Luc reporter)
T1 sequence (P51450 251-516): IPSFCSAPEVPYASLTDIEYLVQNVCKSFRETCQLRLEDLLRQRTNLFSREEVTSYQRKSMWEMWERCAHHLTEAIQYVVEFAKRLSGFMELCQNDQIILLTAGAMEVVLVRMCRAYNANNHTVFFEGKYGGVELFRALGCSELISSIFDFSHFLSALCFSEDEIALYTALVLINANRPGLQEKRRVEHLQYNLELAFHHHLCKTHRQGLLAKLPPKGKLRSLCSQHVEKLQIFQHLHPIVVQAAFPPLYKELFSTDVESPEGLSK
Summary of the method: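 Readout is intracellular luciferase after 2-day compound exposure (8 concentrations, 0.1% DMSO) in CHO cells expressing GAL4 fused to mouse RORγ LBD residues Ile251–Lys516 plus pG5-Luc reporter. EC50 fitted from %-of-control; points showing resazurin-detected cytotoxicity dropped.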

human RORγ = biological target: T2, human RORγ (Homo sapiens, UniProt P51449); test: Luciferase reporter gene assay of inhibitory effect against RORγ transcriptional activity (GAL4-hRORγ plasmid in CHO cells); format: cell-based
T2 construct: human, NM_005060.3 and from Ser253 to Lys518; expressed in transfected cells; host or cells: CHO cells (transient co-transfection with pG5-Luc reporter)
T2 sequence (P51449 253-518): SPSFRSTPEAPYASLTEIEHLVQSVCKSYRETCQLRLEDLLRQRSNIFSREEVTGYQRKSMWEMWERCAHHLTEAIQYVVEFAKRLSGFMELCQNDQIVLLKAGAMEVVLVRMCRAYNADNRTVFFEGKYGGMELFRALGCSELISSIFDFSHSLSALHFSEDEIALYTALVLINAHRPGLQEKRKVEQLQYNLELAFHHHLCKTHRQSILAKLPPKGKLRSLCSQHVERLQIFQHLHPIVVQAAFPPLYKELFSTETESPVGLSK

Compound | EC50 (mouse RORγ; read-out: LUC EC50 (μM) mRORg) | EC50 (human RORγ; read-out: LUC EC50 (μM) hRORg) | EC50 (mouse RORγ; read-out: LUC EC50 mRORg) | EC50 (human RORγ; read-out: LUC EC50 hRORg)
Cc1ccc(NC(=O)C[C@H](CCC(=O)O)c2noc(-c3cc(C4CC(F)(F)C4)on3)c2C2CC2)c(Cl)c1 [Example E-47] | < 3 µM | < 3 µM | – | –
CC(C)(C[C@H]1C[C@@H](c2onc([C@@H](CCC(=O)O)CC(=O)Nc3ccc(CO)cc3Cl)c2C2CC2)C1)C(=O)O [Example F-739] | – | – | > 3 µM | > 3 µM
Cc1ccc(NC(=O)[C@H]2CN(C(C)C)C[C@@H]2c2nnc([C@H]3C[C@@H](CC(C)C)C3)n2C2CC2)c(C)c1 [Example F-597] | – | – | < 3 µM | < 3 µM
Cc1ccc(NC(=O)C[C@H](CCO)c2noc([C@H]3C[C@@H](CC(C)C)C3)c2C2CC2)c(C)c1 [Example F-578] | – | – | < 3 µM | < 3 µM
CCn1c(C2Cc3ccccc3C2)nnc1[C@H](C)CC(=O)Nc1cccc2ccccc12 [Example F-2] | < 3 µM | < 3 µM | – | –
Cc1c(F)ccc(NC(=O)C[C@H](CCO)c2nnc([C@H]3C[C@@H](CC(C)C)C3)n2C2CC2)c1C [Example F-623] | – | – | < 3 µM | < 3 µM
CC(C)(C)C[C@H]1C[C@@H](c2onc(CCC(=O)Nc3ccc(Cl)cc3Cl)c2C2CC2)C1 [Example F-720] | – | – | < 3 µM | < 3 µM
Cc1ccc(NC(=O)C[C@H](CCC(=O)O)c2nnn(-c3ccc(CCC4CCCC4)cc3)c2C2CC2)c(Cl)c1 [Example F-701] | – | – | < 3 µM | < 3 µM
CCn1c(CCC(=O)Nc2cccc3ccccc23)nnc1C1Cc2ccccc2C1 [Example F-1] | < 3 µM | < 3 µM | – | –
CNC(=O)C(C)(C)CCCc1nnc(CCC(=O)Nc2cccc(Cl)c2C)n1C1CC1 [Example F-237] | > 3 µM | > 3 µM | – | –
CCOC(=O)CO[C@@H](CC(=O)Nc1ccc(C)cc1C)c1nnc([C@H]2C[C@@H](CC(C)C)C2)n1C1CC1 [Example F-433] | < 3 µM | < 3 µM | – | –
Cc1cc(C#N)ccc1NC(=O)CCc1nnc(CCC(C)C)n1C1CC1 [Example F-161] | > 3 µM | > 3 µM | – | –
CNC(=O)C(C)(C)CCc1nnc(CCC(=O)Nc2cccc(Cl)c2C)n1C1CC1 [Example F-231] | > 3 µM | > 3 µM | – | –
COc1cc(C)ccc1CNC(=O)CCc1nnc(CCC2(C)CCCCC2)n1C1CC1 [Example F-270] | < 3 µM | < 3 µM | – | –
Cc1ccc(NC(=O)CCc2noc(CCCC(C)(C)C)c2C2CC2)c(Cl)c1 [Example F-729] | – | – | < 3 µM | < 3 µM
Cc1ccc(NC(=O)CC(CCCN(C)C)c2nnc(CCCC(C)C)n2C2CC2)c(C)c1 (racemic) [Example F-288] | > 3 µM | > 3 µM | – | –
Cc1ccc(NC(=O)CCc2nnc([C@H]3C[C@@H](CC(C)C)C3)n2C2CC2)c(C)c1 [Example F-358] | < 3 µM | < 3 µM | – | –
CC(=O)N1C[C@H](C(=O)Nc2ccc(C)cc2C)[C@@H](c2nnc(CCCC(C)(C)C)n2C2CC2)C1 (racemic) [Example F-219] | < 3 µM | < 3 µM | – | –
Cc1ccc(NC(=O)[C@H]2CN(C(=O)CCC(=O)O)C[C@@H]2c2noc([C@H]3C[C@@H](CC(C)(C)C)C3)c2C2CC2)c(Cl)c1 [Example F-688, 4-((3R,4R)-3-(2-Chloro-4-methyl-phenylcarbamoyl)-4-{4-cyclopropyl-5-[3-(2,2-dimethyl-propyl)-cyclobutyl]-isoxazol-3-yl}pyrrolidin-1-yl)-4-oxo-butanoic acid] | – | – | < 3 µM | < 3 µM
Cc1cc(Cl)ccc1NC(=O)C[C@H](CC(C)C)c1nnc(-c2cc(CC(C)C)on2)n1C1CC1 [Example F-606] | – | – | < 3 µM | < 3 µM
CC(=O)N1C[C@H](C(=O)Nc2ccc(C)cc2C)[C@@H](c2nnc(CCCC(C)C)n2C2CC2)C1 (racemic) [Example F-220] | < 3 µM | < 3 µM | – | –
Cc1ccc(NC(=O)[C@H]2CCN(C)C[C@@H]2c2nnc(CCCC(C)(C)C)n2C2CC2)c(C)c1 (racemic) [Example F-395] | < 3 µM | < 3 µM | – | –
Cc1c(NC(=O)CCc2nnc(CCC(C)C)n2C2CC2)cccc1C(F)(F)F [Example F-99] | < 3 µM | > 3 µM | – | –
Cc1ccc(NC(=O)CC(Cc2ccccc2)c2nnc(CCCC(C)(C)C)n2C2CC2)c(C)c1 (racemic) [Example F-436] | < 3 µM | < 3 µM | – | –
